In PubChem BioAssay AID256 (DTP/NCI, 2004):
Several values for one entry are separate records, joined by “and”; a condition that tells them apart may be missing. Equal entries are not always repeated. Toxic doses and inconclusive results are not listed.

Tested on: CD2F1 mice, L1210 leukemia ip, survival T/C
Assay: NCI In Vivo Anticancer Drug Screen. Data for tumor model L1210 Leukemia (intraperitoneal) in CD2F1 (CDF1) mice
Settings: higher = longer survival
Summary of the method: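 Transplantable tumor in mice; compound-treated vs vehicle-treated groups. Read-out = treated/control ratio of the measured endpoint.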

[1] = endpoint: mean survival time, dose: 50.0 mg/kg/injection, schedule: Q01DX009 (ip), vehicle: saline with Tween-80
[2] = endpoint: mean survival time, dose: 100.0 mg/kg/injection, schedule: Q01DX009 (ip), vehicle: saline with Tween-80
[3] = endpoint: mean survival time, dose: 200.0 mg/kg/injection, schedule: Q01DX001 (ip), vehicle: saline with Tween-80
[4] = endpoint: mean survival time, dose: 200.0 mg/kg/injection, schedule: Q01DX009 (ip), vehicle: saline with Tween-80
[5] = endpoint: mean survival time, dose: 100.0 mg/kg/injection, schedule: Q04DX002 (ip), vehicle: saline
[6] = endpoint: mean survival time, dose: 100.0 mg/kg/injection, schedule: Q04DX003 (ip), vehicle: saline with Tween-80
[7] = endpoint: mean survival time, dose: 200.0 mg/kg/injection, schedule: Q04DX003 (ip), vehicle: saline with Tween-80
[8] = endpoint: mean survival time, dose: 400.0 mg/kg/injection, schedule: Q01DX009 (ip), vehicle: saline with Tween-80
[9] = endpoint: mean survival time, dose: 400.0 mg/kg/injection, schedule: Q04DX003 (ip), vehicle: saline with Tween-80
[10] = endpoint: mean survival time, dose: 100.0 mg/kg/injection, schedule: Q01DX001 (ip), vehicle: saline with Tween-80
[11] = endpoint: mean survival time, dose: 400.0 mg/kg/injection, schedule: Q01DX001 (ip), vehicle: saline with Tween-80
[12] = endpoint: median survival time, dose: 25.0 mg/kg/injection, schedule: Q01DX009 (ip), vehicle: saline with Tween-80
[13] = endpoint: median survival time, dose: 50.0 mg/kg/injection, schedule: Q01DX009 (ip), vehicle: saline with Tween-80
[14] = endpoint: median survival time, dose: 100.0 mg/kg/injection, schedule: Q01DX009 (ip), vehicle: saline with Tween-80
[15] = endpoint: mean survival time, dose: 25.0 mg/kg/injection, schedule: Q01DX009 (ip), vehicle: saline
[16] = endpoint: mean survival time, dose: 50.0 mg/kg/injection, schedule: Q01DX009 (ip), vehicle: saline
[17] = endpoint: mean survival time, dose: 100.0 mg/kg/injection, schedule: Q01DX009 (ip), vehicle: saline

## Nc1nc2ncc(CNc3ccc(C(=O)NC(CCC(=O)O)C(=O)O)cc3)nc2c(=O)[nH]1.[NH-]C1CCCCC1[NH-].[Pt+2] (centres undefined)
endpoint: median survival time, dose: 3.12 mg/kg/injection, schedule: Q04DX003 (ip), vehicle: saline
  T/C: 102 % of control and 104 % of control
endpoint: median survival time, dose: 6.25 mg/kg/injection, schedule: Q04DX003 (ip), vehicle: saline
  T/C: 107 % of control and 108 % of control
endpoint: median survival time, dose: 12.5 mg/kg/injection, schedule: Q04DX003 (ip), vehicle: saline
  T/C: 105 % of control
endpoint: median survival time, dose: 25.0 mg/kg/injection, schedule: Q04DX003 (ip), vehicle: saline
  T/C: 116 % of control and 108 % of control
endpoint: median survival time, dose: 50.0 mg/kg/injection, schedule: Q04DX003 (ip), vehicle: saline
  T/C: 114 % of control and 111 % of control
endpoint: median survival time, dose: 100.0 mg/kg/injection, schedule: Q04DX003 (ip), vehicle: saline
  T/C: 113 % of control and 115 % of control
endpoint: median survival time, dose: 200.0 mg/kg/injection, schedule: Q04DX003 (ip), vehicle: saline
  T/C: 161 % of control

## NC(N)=NCc1ccccc1
endpoint: mean survival time, dose: 10.0 mg/kg/injection, schedule: Q04DX003 (ip), vehicle: saline
  T/C: 106 % of control
endpoint: mean survival time, dose: 12.5 mg/kg/injection, schedule: Q04DX003 (ip), vehicle: saline
  T/C: 100 % of control
endpoint: mean survival time, dose: 20.0 mg/kg/injection, schedule: Q04DX003 (ip), vehicle: saline
  T/C: 103 % of control
endpoint: mean survival time, dose: 25.0 mg/kg/injection, schedule: Q04DX003 (ip), vehicle: saline
  T/C: 96 % of control
endpoint: mean survival time, dose: 40.0 mg/kg/injection, schedule: Q04DX003 (ip), vehicle: saline
  T/C: 100 % of control
endpoint: mean survival time, dose: 50.0 mg/kg/injection, schedule: Q04DX003 (ip), vehicle: saline
  T/C: 97 % of control and 100 % of control

## CCc1ccc2ccccc2c1N
[1]
  T/C: 108 % of control
[2]
  T/C: 110 % of control
[3]
  T/C: 94 % of control
[4]
  T/C: 118 % of control

## C=CCCCCCCCCC(=O)N1CCOCC1
[5]
  T/C: 97 % of control

## Cc1cc(C)c(C(=O)c2ccc(-c3ccccc3)cc2)c(C)c1
[2]
  T/C: 95 % of control
[6]
  T/C: 98 % of control
[4]
  T/C: 98 % of control
[7]
  T/C: 106 % of control
[8]
  T/C: 91 % of control
[9]
  T/C: 98 % of control

## C[Si]1(C)N(c2ccccc2)[Si](C)(C)N(c2ccccc2)[Si](C)(C)N1c1ccccc1
[2]
  T/C: 105 % of control
[6]
  T/C: 105 % of control
[4]
  T/C: 107 % of control
[7]
  T/C: 94 % of control
[8]
  T/C: 106 % of control
[9]
  T/C: 93 % of control

## c1ccc2cc(OCCOCCOc3ccc4ccccc4c3)ccc2c1
[10]
  T/C: 103 % of control
[3]
  T/C: 100 % of control
[11]
  T/C: 97 % of control

## CC(=O)Nc1ccc(SC(=O)N(C)C)cc1
[6]
  T/C: 92 % of control

## C=C(C)C1CNC(C(=O)O)C1CC(=O)O (centres undefined)
endpoint: mean survival time, dose: 6.25 mg/kg/injection, schedule: Q04DX003 (ip), vehicle: saline sonified
  T/C: 97 % of control
endpoint: mean survival time, dose: 12.5 mg/kg/injection, schedule: Q04DX003 (ip), vehicle: saline sonified
  T/C: 95 % of control
endpoint: mean survival time, dose: 25.0 mg/kg/injection, schedule: Q04DX003 (ip), vehicle: saline sonified
  T/C: 109 % of control

## COC(=O)C(Br)C(OC)c1ccc(C)cc1 (centres undefined)
[2]
  T/C: 94 % of control
endpoint: mean survival time, dose: 100.0 mg/kg/injection, schedule: Q04DX003 (ip), vehicle: saline sonified
  T/C: 95 % of control
[4]
  T/C: 96 % of control
endpoint: mean survival time, dose: 200.0 mg/kg/injection, schedule: Q04DX003 (ip), vehicle: saline sonified
  T/C: 91 % of control
[8]
  T/C: 90 % of control
endpoint: mean survival time, dose: 400.0 mg/kg/injection, schedule: Q04DX003 (ip), vehicle: saline sonified
  T/C: 101 % of control

## COc1cccc(CCN)c1
endpoint: mean survival time, dose: 18.75 mg/kg/injection, schedule: Q01DX009 (ip), vehicle: saline sonified
  T/C: 98 % of control
endpoint: mean survival time, dose: 37.5 mg/kg/injection, schedule: Q01DX009 (ip), vehicle: saline sonified
  T/C: 97 % of control
endpoint: mean survival time, dose: 37.5 mg/kg/injection, schedule: Q01DX009 (ip), vehicle: saline with Tween-80
  T/C: 108 % of control
endpoint: mean survival time, dose: 75.0 mg/kg/injection, schedule: Q01DX009 (ip), vehicle: saline sonified
  T/C: 97 % of control
endpoint: mean survival time, dose: 75.0 mg/kg/injection, schedule: Q01DX009 (ip), vehicle: saline with Tween-80
  T/C: 103 % of control

## COc1ccc(CC2c3cc(OC)c(OC)cc3CCN2C(C)=O)cc1 (centres undefined)
[6]
  T/C: 101 % of control
[7]
  T/C: 100 % of control
[9]
  T/C: 100 % of control

## N#CC(C#N)=c1ccc(=C(C#N)C#N)cc1
[6]
  T/C: 98 % of control

## Oc1ccc(/C=N/N=C/c2ccc(O)c(O)c2)cc1O
[12]
  T/C: 108 % of control
[13]
  T/C: 110 % of control
[14]
  T/C: 112 % of control

## CCC(C)C(=O)CN(C)C (centres undefined)
endpoint: mean survival time, dose: 100.0 mg/kg/injection, schedule: Q04DX003 (ip), vehicle: saline
  T/C: 100 % of control
endpoint: mean survival time, dose: 200.0 mg/kg/injection, schedule: Q04DX003 (ip), vehicle: saline
  T/C: 96 % of control

## CN1NC(=O)C2CCCC1O2 (centres undefined)
endpoint: mean survival time, dose: 12.5 mg/kg/injection, schedule: Q01DX009 (ip), vehicle: saline
  T/C: 106 % of control
[15]
  T/C: 102 % of control
[16]
  T/C: 105 % of control
[17]
  T/C: 111 % of control

## O=C(N/N=C/c1ccc2c(c1)CCC2)c1ccc([N+](=O)[O-])cc1
[6]
  T/C: 95 % of control
[7]
  T/C: 89 % of control
[9]
  T/C: 98 % of control

## CCOC(=O)CC(C)(O)Cc1ccccc1 (centres undefined)
endpoint: mean survival time, dose: 100.0 mg/kg/injection, schedule: Q04DX003 (ip), vehicle: acetone
  T/C: 96 % of control
endpoint: mean survival time, dose: 200.0 mg/kg/injection, schedule: Q04DX003 (ip), vehicle: acetone
  T/C: 87 % of control
endpoint: mean survival time, dose: 400.0 mg/kg/injection, schedule: Q04DX003 (ip), vehicle: acetone
  T/C: 102 % of control

## CCN(CC)Cc1ccc(Nc2cc(C)nc(/N=C(\N)Nc3ccc(Cl)c(Cl)c3)n2)cc1
endpoint: mean survival time, dose: 12.5 mg/kg/injection, schedule: Q04DX003 (ip), vehicle: saline with Tween-80
  T/C: 98 % of control
endpoint: mean survival time, dose: 25.0 mg/kg/injection, schedule: Q04DX003 (ip), vehicle: saline with Tween-80
  T/C: 95 % of control

## O=C1c2ccccc2C(=O)c2c(NCCSCCO)ccc(NCCSCCO)c21
endpoint: mean survival time, dose: 16.0 mg/kg/injection, schedule: Q01DX009 (ip), vehicle: Klucel (hydroxypropylcellulose) (HPC)
  T/C: 100 % of control
endpoint: mean survival time, dose: 32.0 mg/kg/injection, schedule: Q01DX009 (ip), vehicle: Klucel (hydroxypropylcellulose) (HPC)
  T/C: 102 % of control
endpoint: mean survival time, dose: 64.0 mg/kg/injection, schedule: Q01DX009 (ip), vehicle: Klucel (hydroxypropylcellulose) (HPC)
  T/C: 93 % of control
endpoint: mean survival time, dose: 128.0 mg/kg/injection, schedule: Q01DX009 (ip), vehicle: Klucel (hydroxypropylcellulose) (HPC)
  T/C: 93 % of control
endpoint: mean survival time, dose: 256.0 mg/kg/injection, schedule: Q01DX009 (ip), vehicle: Klucel (hydroxypropylcellulose) (HPC)
  T/C: 102 % of control

## c1ccc(Nc2ccccc2)cc1 (tested in a mixture with another compound)
[5]
  T/C: 95 % of control

## CC1CC(C)(C)N=C(CCNCc2ccccc2)O1 (centres undefined)
endpoint: mean survival time, dose: 6.25 mg/kg/injection, schedule: Q01DX001 (ip), vehicle: saline
  T/C: 95 % of control
endpoint: mean survival time, dose: 12.5 mg/kg/injection, schedule: Q01DX001 (ip), vehicle: saline
  T/C: 110 % of control
endpoint: mean survival time, dose: 25.0 mg/kg/injection, schedule: Q01DX001 (ip), vehicle: saline
  T/C: 103 % of control

## Cc1cccc(NC2=NCCO2)c1
[10]
  T/C: 104 % of control
[3]
  T/C: 103 % of control

## Oc1ccccc1Cn1ccnc1
[15]
  T/C: 104 % of control
[16]
  T/C: 98 % of control
[17]
  T/C: 98 % of control and 103 % of control

## CCC1(CC)C(=O)C=CNC1=O
[1]
  T/C: 100 % of control
[2]
  T/C: 94 % of control
[4]
  T/C: 103 % of control

## Nc1ccc(-c2nc(N)[nH]c(=O)c2N)cc1
[10]
  T/C: 96 % of control
[3]
  T/C: 92 % of control
[11]
  T/C: 88 % of control

## O=C1C2CC(Cl)C(SSC3CC4C(=O)N(SC(Cl)(Cl)C(Cl)Cl)C(=O)C4CC3Cl)CC2C(=O)N1SC(Cl)(Cl)C(Cl)Cl (centres undefined)
endpoint: median survival time, dose: 6.25 mg/kg/injection, schedule: Q01DX009 (ip), vehicle: saline with Tween-80
  T/C: 101 % of control
endpoint: median survival time, dose: 12.5 mg/kg/injection, schedule: Q01DX009 (ip), vehicle: saline with Tween-80
  T/C: 95 % of control
[12]
  T/C: 98 % of control and 100 % of control
[13]
  T/C: 101 % of control and 102 % of control
[14]
  T/C: 100 % of control and 102 % of control
endpoint: median survival time, dose: 200.0 mg/kg/injection, schedule: Q01DX009 (ip), vehicle: saline with Tween-80
  T/C: 102 % of control
endpoint: median survival time, dose: 400.0 mg/kg/injection, schedule: Q01DX009 (ip), vehicle: saline with Tween-80
  T/C: 105 % of control

## OCC1CC2c3[nH]c4ccccc4c3CCN2C1 (centres undefined)
endpoint: mean survival time, dose: 20.0 mg/kg/injection, schedule: Q01DX001 (ip), vehicle: saline with Tween-80
  T/C: 95 % of control
endpoint: mean survival time, dose: 40.0 mg/kg/injection, schedule: Q01DX001 (ip), vehicle: saline with Tween-80
  T/C: 90 % of control
endpoint: mean survival time, dose: 80.0 mg/kg/injection, schedule: Q01DX001 (ip), vehicle: saline with Tween-80
  T/C: 93 % of control
